Assay results published in patent publication US7910551B2, “Gene differentially expressed in breast and bladder cancer and encoded polypeptides” (University of Rochester, priority 2000, dated 2011).

Tested on: B/C.N cells
Assay: CML assay: peptide sensitization of B/C.N cells to lysis by tumor-specific CTL
Format: cell-based, mouse
Details: for ability to sensitize B/C.N cells to lysis by tumor-specific CTL: 51Cr release, 4 hours

| Substance | ability to sensitize B/C.N cells to lysis by tumor-specific CTL | peptide concentration that did not sensitize targets to lysis by CTL (B/C.N targets) [mM] | peptide concentration sufficient to sensitize targets to lysis by CTL (B/C.N targets) [nM] |
| --- | --- | --- | --- |
| L345-54 (I54): ribosomal protein L3 peptide, amino acids 45-54 with Ile 54 (AFLGYKAGMI) | did not | – | – |
| L348-56 (T54): wild type ribosomal protein L3 peptide 48-56 with Thr 54 (GYKAGMTHI) [reference compound] | did not | > 100 | – |
| L348-56 (I54): ribosomal protein L3 peptide, amino acids 48-56 with Ile 54; target epitope of tumor-specific CTL (GYKAGMIHI) | sensitized B/C.N to lysis | – | 10 |
